pIC50, pKi: −log10 of the molar value. Numbered stars: 1 amine (or outer) side, 2 acyl side, 3 side chain; on linkers, the order of the positions; unused ones are H or OH. Square brackets hold non-standard residues; d marks the D form. Peptide text beside a SMILES is read from it. * marks the point of attachment. X4 = O=C(NO)C(Cc1ccccc1)N(CC(=O)[*:2])[*:1]; γGlu = O=C(O)[C@H](CCC(=O)[*:2])N[*:1]; X2 = O=C(Cc1ccc(N[*:1])cc1)[*:2]; X3 = O=C(O)C(Cc1ccccc1)NCCC(=O)*; X1 = O=C(C(CS)Cc1ccccc1)*
Key:
[1] = target: T1, ANP clearance receptor on bovine aortic smooth muscle (BASM) cells (Bos taurus, UniProt P10730); test: BASM receptor binding assay (competition with I125 labeled rANP(102-126)); settings: read-out: Ki(app)
T1 construct: endogenous in cells; host or cells: bovine aortic smooth muscle (BASM) cells
T1 sequence (P10730 42-537): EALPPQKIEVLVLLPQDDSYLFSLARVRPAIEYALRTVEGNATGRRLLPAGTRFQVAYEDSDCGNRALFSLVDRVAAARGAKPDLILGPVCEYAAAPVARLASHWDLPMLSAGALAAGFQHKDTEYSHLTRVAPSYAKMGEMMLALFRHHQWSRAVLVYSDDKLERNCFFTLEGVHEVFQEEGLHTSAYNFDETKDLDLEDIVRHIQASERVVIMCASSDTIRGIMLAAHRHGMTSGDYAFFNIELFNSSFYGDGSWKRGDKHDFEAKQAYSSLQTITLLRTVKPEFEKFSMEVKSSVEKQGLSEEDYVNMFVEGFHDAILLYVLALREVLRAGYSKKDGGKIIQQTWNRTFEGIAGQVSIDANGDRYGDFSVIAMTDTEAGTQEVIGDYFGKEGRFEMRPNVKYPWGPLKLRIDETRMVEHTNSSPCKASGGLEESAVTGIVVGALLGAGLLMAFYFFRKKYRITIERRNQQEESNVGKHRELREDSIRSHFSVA
Description: (§1) The assay systems used are adapted from those of Schenk, D. B., et al, Biochem Biophys Res Commun (1985) 127:433-442 and Scarborough, R. M., J Biol Chem (1986) 261:12960-12964. These assays measure clearance receptor binding affinity through competition with ANP using the receptors on bovine aortic smooth muscle (BASM) or bovine aortic endothelial (BAE) cells. Also employed is the receptor binding affinity assay for the clearance receptor in isolated perfused rat kidney as described by Maack, T., et al, Science (1987) 238:675-679.

Endopeptidase 24.11 = target: T2, Endopeptidase 24.11 (Rattus norvegicus, UniProt P07861); test: Inhibition of endopeptidase 24.11 (cleavage of rANP(99-126), HPLC); type: biochemical; settings: for inhibition at 10 µM / inhibition at 0.02 µM / inhibition at 0.1 µM / inhibition at 1 µM: read-out: % Inhibition of Metabolite Formation; for inhibition at 0.02 µM: 20 nM; for inhibition at 0.1 µM: 100 nM
T2 construct: rat urine was collected and desalted on Sephadex G-25; from tissue; host or cells: rat urine, desalted on Sephadex G-25
T2 sequence (P07861 1-750): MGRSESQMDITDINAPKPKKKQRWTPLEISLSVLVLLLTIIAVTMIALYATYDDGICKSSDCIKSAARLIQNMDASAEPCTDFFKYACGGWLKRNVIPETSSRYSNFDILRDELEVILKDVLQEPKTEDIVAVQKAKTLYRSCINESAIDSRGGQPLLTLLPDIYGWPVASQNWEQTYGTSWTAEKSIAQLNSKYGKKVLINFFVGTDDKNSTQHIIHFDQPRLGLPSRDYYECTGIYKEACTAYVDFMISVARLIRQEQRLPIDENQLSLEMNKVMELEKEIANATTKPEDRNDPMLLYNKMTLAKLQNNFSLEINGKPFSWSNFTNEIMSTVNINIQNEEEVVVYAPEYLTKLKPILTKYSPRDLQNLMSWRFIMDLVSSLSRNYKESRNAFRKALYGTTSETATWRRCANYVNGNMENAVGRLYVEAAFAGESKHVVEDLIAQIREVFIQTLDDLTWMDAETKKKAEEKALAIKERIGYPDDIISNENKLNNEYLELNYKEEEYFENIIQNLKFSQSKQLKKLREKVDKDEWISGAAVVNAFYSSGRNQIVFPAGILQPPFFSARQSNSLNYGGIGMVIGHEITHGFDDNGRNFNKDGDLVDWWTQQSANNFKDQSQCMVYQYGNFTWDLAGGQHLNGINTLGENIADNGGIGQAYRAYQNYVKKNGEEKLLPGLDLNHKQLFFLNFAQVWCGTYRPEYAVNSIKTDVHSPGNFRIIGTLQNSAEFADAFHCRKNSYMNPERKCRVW
Protocol: Endopeptidase 24.11 inactivates ANP by cleavage at the Cys^105 -Phe^106 amide bond. The ability of the compounds of the invention to inhibit this degradation was assayed by a modification of the procedure of Ura, N., et al, Kidney Int (1987) 32:507-513 by substituting rANP(99-126) for bradykinin as a substrate.
Briefly, rat urine was collected and desalted on Sephadex G-25 as described by Ura (supra) and 4 ul of sample in 100 ul 0.1M Tris buffer, pH 7.2 containing aminopeptidase inhibitor bestatin (10 ug/ml), potato tuber carboxy peptidase inhibitor (10 ug/ml) and aprotinin (5,000 kalikrein inhibitory unit/ml) were incubated for 15 min at 37° C. The assay was then initiated by addition of 2-10 ug rANP(99-126) to a final volume of 0.5 ml and incubated at 10-20 min at 37° C. Termination of the reaction was accomplished by boiling, spinning and freezing.
Compounds to be tested for their ability to inhibit the endopeptidase were added to the preincubation mixture 15 min before addition of substrate.
The frozen samples, incubated with or without inhibitor, were thawed and analyzed by HPLC to determine the concentration of starting rANP(99-126) and its degradation product. HPLC analysis was conducted on Vydac C18 reverse phase HPLC column (4.6 mm ID×12.5 cm; 5 uM, 300A). A linear gradient of 15-35% acetonitrile containing 0.1% TFA was run at 1.0 ml/min on a Perkin-Elmer series 4 HPLC system. The effluent was monitored at 220 nm and the peptide peak heights measured.
The results were computed as the percent of the Cys^105 -Phe^106 cleavage metabolite peak in the test sample as compared to the peak height for this metabolite in the control.

[2] = target: T3, clearance receptor in isolated perfused rat kidney (Rattus norvegicus, UniProt P41740); test: Rat kidney receptor binding assay (isolated perfused rat kidney); settings: labeled compound 4 × 10^-12 M + competitor 1 × 10^-6 M; n = 2
T3 construct: the clearance receptor in isolated perfused rat kidney; from tissue; host or cells: isolated perfused rat kidney
T3 sequence (P41740 41-535): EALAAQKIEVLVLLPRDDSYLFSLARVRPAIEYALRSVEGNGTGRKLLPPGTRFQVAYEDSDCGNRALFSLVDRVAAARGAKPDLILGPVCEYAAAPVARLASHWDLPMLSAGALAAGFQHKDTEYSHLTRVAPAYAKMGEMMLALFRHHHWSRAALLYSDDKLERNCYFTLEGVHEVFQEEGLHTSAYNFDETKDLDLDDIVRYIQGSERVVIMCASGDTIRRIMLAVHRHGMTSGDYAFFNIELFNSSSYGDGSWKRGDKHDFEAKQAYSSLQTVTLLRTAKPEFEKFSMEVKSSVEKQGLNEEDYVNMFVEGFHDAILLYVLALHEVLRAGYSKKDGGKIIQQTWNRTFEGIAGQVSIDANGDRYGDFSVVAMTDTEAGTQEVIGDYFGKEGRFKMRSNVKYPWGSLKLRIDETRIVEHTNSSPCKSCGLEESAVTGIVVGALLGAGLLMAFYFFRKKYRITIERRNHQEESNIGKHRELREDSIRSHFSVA
Description: as §1
In the rat kidney receptor binding assay, the native 28-residue labeled ANP was used: I^125 labeled rANP(99-126), with the label linked to tyrosine at 126. The results of this assay are shown in Table 2 as the ratio of bound-to-free labeled rANP(99-126) in the presence and absence of competing compound.

pKi [1]	inhibition at 10 µM (Endopeptidase 24.11) [%]	Molecule	other results
8.19	0	CC[C@H](C)[C@H](NC(=O)[C@H](CCCNC(=N)N)NC(=O)[C@H](CC(=O)O)NC(=O)[C@@H](NC(=O)[C@H](CCCNC(=N)N)NC(=O)Cc1ccc(NC(=O)[C@H](Cc2ccccc2)NC(Cc2ccccc2)C(=O)O)cc1)[C@@H](C)CC)C(N)=O (stereo partly drawn) [Analog 445, F[N]F-4-APA-R-I-D-R-I-NH2]	–
6.70	–	CC[C@H](C)[C@H](NC(=O)[C@H](CCCNC(=N)N)NC(=O)[C@H](CC(=O)O)NC(=O)[C@@H](NC(=O)[C@H](CCCNC(=N)N)NC(=O)CC[C@H](NC(=O)C(CS)Cc1ccccc1)C(=O)O)[C@@H](C)CC)C(N)=O (some centres unmarked) [Analog 78] ({X1-γGlu}-RIDRI-NH2)	–
6.68	–	CC[C@H](C)[C@H](NC(=O)[C@H](CCCNC(=N)N)NC(=O)[C@H](CC(=O)O)NC(=O)[C@@H](NC(=O)[C@H](CCCNC(=N)N)NC(=O)CNC(=O)[C@H](CC(=O)O)NC(=O)C(CS)Cc1ccccc1)[C@@H](C)CC)C(N)=O (some centres unmarked) [Analog 12] (X1-DGRIDRI-NH2)	–
–	–	rANP(99-126): native 28-residue rat ANP, unlabeled competitor in the rat kidney binding assay [reference compound]	Ratio of Bound/Free (125I)rANP(99-126), Whole Kidney [2]: 0.56
6.65	–	CC[C@H](C)[C@H](NC(=O)[C@H](CCCNC(=N)N)NC(=O)[C@H](CC(=O)O)NC(=O)[C@@H](NC(=O)[C@H](CCCNC(=N)N)NC(=O)CNC(=O)[C@H](CC(=O)O)NC(=O)[C@H](Cc1ccccc1)NC(Cc1ccccc1)C(=O)O)[C@@H](C)CC)C(N)=O (some centres unmarked) [Analog 463]	–
7.71	92	CC[C@H](C)[C@H](NC(=O)[C@H](CCCNC(=N)N)NC(=O)[C@H](CC(=O)O)NC(=O)[C@@H](NC(=O)[C@H](CCCNC(=N)N)NC(=O)CNC(=O)CNC(=O)C(CS)Cc1ccccc1)[C@@H](C)CC)C(N)=O (stereo partly drawn) [Analog 1, MBP-G-G-R-I-D-R-I-NH2] (X1-GGRIDRI-NH2)	inhibition at 0.02 µM (Endopeptidase 24.11): 0%; inhibition at 0.1 µM (Endopeptidase 24.11): 23%; inhibition at 1 µM (Endopeptidase 24.11): 45%; pIC50 (Endopeptidase 24.11; approximate, from Table 3, read-out: ED50 of inhibition): ~6.00
6.94	–	CC[C@H](C)[C@H](NC(=O)[C@H](CCCNC(=N)N)NC(=O)[C@H](CC(=O)O)NC(=O)[C@@H](NC(=O)[C@H](CCCNC(=N)N)NC(=O)CNC(=O)[C@@H](CC(=O)O)NC(=O)C(CS)Cc1ccccc1)[C@@H](C)CC)C(N)=O (some centres unmarked) [Analog 23] (X1-[dD]GRIDRI-NH2)	–
7.56	–	CC[C@H](C)[C@H](NC(=O)[C@H](CCCNC(=N)N)NC(=O)[C@H](CC(=O)O)NC(=O)[C@@H](NC(=O)[C@H](CCCNC(=N)N)NC(=O)CNC(=O)CNC(=O)[C@H](Cc1ccccc1)NC(Cc1ccccc1)C(=O)O)[C@@H](C)CC)C(N)=O (some centres unmarked) [Analog 436]	–
–	97	CC(C)C[C@H](NP(=O)(O)O[C@@H]1O[C@@H](C)[C@H](O)[C@@H](O)[C@H]1O)C(=O)N[C@@H](Cc1c[nH]c2ccccc12)C(=O)O [Phosphoramidon, phosphoramidon, reference compound]	inhibition at 0.02 µM (Endopeptidase 24.11): 0%; inhibition at 0.1 µM (Endopeptidase 24.11): 30%; inhibition at 1 µM (Endopeptidase 24.11): 80%
–	–	F--[N]--F--G--G--R--I--D--R--I--NH2 [Analog 436]	Ratio of Bound/Free (125I)rANP(99-126), Whole Kidney [2]: 1.31
–	92	O=C(O)CNC(=O)C(CS)Cc1ccccc1 (centres unmarked) [Thiorphan, thiorphan, reference compound]	inhibition at 0.02 µM (Endopeptidase 24.11): 12%; inhibition at 0.1 µM (Endopeptidase 24.11): 53%; inhibition at 1 µM (Endopeptidase 24.11): 67%
8.34	–	CC[C@H](C)[C@H](NC(=O)[C@H](CCCNC(=N)N)NC(=O)[C@H](CC(=O)O)NC(=O)[C@@H](NC(=O)[C@H](CCCNC(=N)N)NC(=O)CNC(=O)CNC(Cc1ccccc1)C(=O)NO)[C@@H](C)CC)C(N)=O (some centres unmarked) [Analog 702] (H-[X4]GRIDRI-NH2)	–
7.94	–	CC[C@H](C)[C@H](NC(=O)[C@H](CCCNC(=N)N)NC(=O)[C@H](CC(=O)O)NC(=O)[C@@H](NC(=O)[C@H](CCCNC(=N)N)NC(=O)CNC(=O)CCNC(Cc1ccccc1)C(=O)O)[C@@H](C)CC)C(N)=O (some centres unmarked) [Analog 427] (X3-GRIDRI-NH2)	–
7.24	–	CC[C@H](C)[C@H](NC(=O)[C@H](CCCNC(=N)N)NC(=O)[C@H](CC(=O)O)NC(=O)[C@@H](NC(=O)[C@H](CCCNC(=N)N)NC(=O)CC[C@H](NC(=O)[C@H](Cc1ccccc1)NC(CCc1ccccc1)C(=O)O)C(=O)O)[C@@H](C)CC)C(N)=O (some centres unmarked) [Analog 544]	–
7.17	–	CC[C@H](C)[C@H](NC(=O)[C@H](CCCNC(=N)N)NC(=O)[C@H](CC(=O)O)NC(=O)[C@@H](NC(=O)[C@H](CCCNC(=N)N)NC(=O)CNC(=O)CNC(Cc1ccccc1)C(=O)O)[C@@H](C)CC)C(N)=O (some centres unmarked) [Analog 364]	–
7.96	97	CC[C@H](C)[C@H](NC(=O)[C@H](CCCNC(=N)N)NC(=O)[C@H](CC(=O)O)NC(=O)[C@@H](NC(=O)[C@H](CCCNC(=N)N)NC(=O)Cc1ccc(NC(=O)C(CS)Cc2ccccc2)cc1)[C@@H](C)CC)C(N)=O (stereo partly drawn) [Analog 122, MBP-4-APA--R--I--D--R--I--NH2] (X1-[X2]RIDRI-NH2)	inhibition at 0.02 µM (Endopeptidase 24.11): 12%; inhibition at 0.1 µM (Endopeptidase 24.11): 25%; inhibition at 1 µM (Endopeptidase 24.11): 72%

From patent US5449662A, “Atrial natriuretic peptide clearance inhibitors which resist degradation” (Scios Nova Inc., priority 1992, dated 1995)
